Source: PMC12638379, “An innovative approach to development of new pyrazolylquinolin-2-one hybrids as dual EGFR and BRAF^V600E inhibitors” (Molecular Diversity, 2025)
Several values for one entry are separate records, joined by “and”; a condition that tells them apart may be missing. Identical values can stand only once. Like-named read-outs stand apart in the source and are kept apart here.

How the values were obtained:
[1] = tested on: lung cancer (HOP-92) cell line; assay: MTT antiproliferative assay, HOP-92; assay type: cell-based, human; conditions: for % viability: listed as STA
Protocol: […]. […] See Appendix B.
(§1) After 24 h of culture incubation and supernatants discarded.

[2] = tested on: leukemia (MOLT-4) cell line; assay: MTT antiproliferative assay, MOLT-4; assay type: cell-based, human
Protocol: as §1

[3] = tested on: breast cancer (T47D) cell line; assay: MTT antiproliferative assay, T-47D
Protocol: The median inhibitory concentration (IC50) and GI50 (average IC50) against the three cancer cell lines were calculated. See Appendix B.
Cells were cultured using DMEM (Invitrogen/Life Technologies) supplemented with 10% FBS (Hyclone,), 10 ug/ml of insulin (Sigma), and 1% penicillin-streptomycin. Plate cells (cells density 1.2 – 1.8 × 10,000 cells/well) in a volume of 100µl complete growth medium + 100 ul of the tested compound per well in a 96-well plate for 24 hours before the MTT assay. In atypical experiment, one hundred micro liters of serial 10-fold diluted sterile tested compounds were added to final concentrations of […] using culture media as negative control. After 24 h of culture incubation and supernatants discarded. HOP-92 lung, MOLT-4 leukemia, and T-47D breast cell lines were trypsinized and washed with Ca2/Mg2 free PBS (pH 7.2). we removed cultures from incubator into laminar flow hood or other sterile work area. […] Each test should include a blank containing complete medium without cells. […] Add reconstituted MTT in an amount equal to 10% of the culture medium volume. Return cultures to incubator for 2-4 hours depending on cell type and maximum cell density. […] Spectrophotometrically absorbance was measured at a wavelength of 570 nm. Measure the background absorbance of multiwell plates at 690 nm and subtract from the […] measurement. Results from all experiments were recorded and the percentage of viable cells was calculated.

In the case of CN[C@@H]1C[C@H]2O[C@@](C)([C@@H]1OC)n1c3ccccc3c3c4c(c5c6ccccc6n2c5c31)C(=O)NC4 [Staurosporine, reference compound], the “% viability” value ([1]; HOP-92, MTT, 0.4uM) is reported as 69.37%, the “% viability” value ([1]; HOP-92, MTT, 1.6uM) is reported as 61.2% and the “% viability” value ([1]; HOP-92, MTT, 6.3uM) is reported as 43.16%. The “% viability” value ([1]; HOP-92, MTT, 100uM) was 17.16%, the viability at 0.4 µM ([1]; Homo sapiens, HOP-92, HOP-92, MTT, 0.4uM) was 69.4% and the viability at 1.6 µM ([1]; Homo sapiens, HOP-92, HOP-92, MTT, 1.6uM) was 61.2%. It also gave a viability at 6.3 µM ([1]; Homo sapiens, HOP-92, HOP-92, MTT, 6.3uM) of 43.2%, a viability at 25 µM ([1]; Homo sapiens, HOP-92, HOP-92, MTT, 25uM) of 24.7% and a viability at 100 µM ([1]; Homo sapiens, HOP-92, HOP-92, MTT, 100uM) of 17.2%. For the same molecule, the IC50 ([1]; Homo sapiens, HOP-92, MTT, read-out: Antiproliferative activity IC50 ± SEM, HOP-92) was 3.17 ± 0.19 µM, the IC50 ([1]; Homo sapiens, HOP-92, concentration used in RT-PCR, read-out: IC50) was 3.17 µM and the “% viability” value ([2]; MOLT-4, 0.4ug (log conc. -0.41), listed as STA) was 72.582% and 72.58%. The “% viability” value ([2]; MOLT-4, 1.6ug (log conc. 0.193), listed as STA) was 62.059% and 62.06%, the “% viability” value ([2]; MOLT-4, 6.3ug (log conc. 0.796)) was 51.82% and the “% viability” value ([2]; MOLT-4, 25ug (log conc. 1.398)) was 36.23%. For the same molecule, the “% viability” value ([2]; MOLT-4, 100ug (log conc. 2)) was 24.46%, the viability at 0.4 µM ([3]; Homo sapiens, T47D) was 69% and the viability at 6.3 µM ([3]; Homo sapiens, T47D, 6.3uM (log 0.796)) was 45.9%. The viability at 25 µM ([3]; Homo sapiens, T47D, 25uM (log 1.398)) was 35%, the viability at 100 µM ([3]; Homo sapiens, T47D, 100uM (log 2), MTT absorbance 450 nm) was 29.6% and the “% viability” value ([3]; T47D, 1.6ug (log 0.193), listed as STA) was 61.548% and 61.55%. For the same molecule, the “% viability” value ([3]; human, 0.4 µM) was 69.04%.
